{"source": "patent US12545637B2", "about": "“Extrahepatic targeted cationic lipid compound with high efficiency and low toxicity and its composition” (BEIJING YOUCARE KECHUANG PHARMACEUTICAL TECHNOLOGY CO., LTD., priority 2023, dated 2026)", "key": {"293T cells [1]": {"system": "293T cells", "assay": "Fluorescent detection of Fluc-mRNA (cell transfection efficiency of LNP formulations)", "format": "cell-based"}, "[2]": {"assay": "Particle size and polydispersity index (PDI) of lipid nanoparticles by dynamic light scattering", "format": "physicochemical", "protocol": "The particle size and polydispersity index (PDI) were determined by dynamic light scattering using Malvern laser particle size analyzer.\n10 μL of the liposome solution was weighed, diluted to 1 mL with RNase-free deionized water, and added to the sample pool. Each sample was measured in triplicate. The measurement conditions were: […] scattering angle, and 25° C."}, "293T cells [3]": {"system": "293T cells", "assay": "Cell transfection test of LNP formulation of eGFP-mRNA (optimization of preparation conditions)", "format": "cell-based", "protocol": "The cationic lipid compound YK-407 synthesized in Example 1 was dissolved in ethanol with DSPC (AVT (Shanghai) Pharmaceutical Technology Co., Ltd.), cholesterol (AVT (Shanghai) Pharmaceutical Technology Co., Ltd.) and DMG-PEG2000 according to a molar ratio of 49:10:39.5:1.5, respectively, to prepare an ethanol lipid solution. The ethanol lipid solution was quickly added to citrate buffer (pH=4-5) by ethanol injection method, and vortexed for 30s for later use. eGFP-mRNA was diluted in citrate buffer (pH=4-5) to give an aqueous mRNA solution. A certain volume of liposome solution and mRNA aqueous solution were used to prepare liposomes at weight ratios of total lipids to mRNA of 5:1, 10:1, 15:1, 20:1, 30:1 and 35:1, respectively. The mixtures were sonicated at 25° C. for 15 min (with an ultrasonic frequency of 40 kHz and an ultrasonic power of 800 W). The resulted liposomes were diluted to 10 times volume with PBS, and then ultrafiltered with a 300KDa ultrafiltration tube to remove ethanol. Then the volume was fixed to a certain volume with PBS to give an LNP formulation encapsulating eGFP-mRNA using cationic lipid YK-407/DSPC/cholesterol/DMG-PEG2000 (49:10:39.5:1.5 in molar percentage).\nThe LNP formulation encapsulating eGFP-mRNA was prepared according to the method in 1, wherein the molar ratios of cationic lipid YK-407 to neutral lipid DSPC were 1:1, 3:1, 3.5:1, 4:1, 4.5:1, 4.9:1, 10:1, 15:1 and 20:1.\nThe LNP formulation encapsulating eGFP-mRNA was prepared according to the method in 1, wherein the cationic lipid in the carrier was YK-407, and the molar ratios of the polymer-conjugated lipid DMG-PEG2000 to the carrier were 0.5%, 1.5%, 3.5%, 5%, 10% and 15%, respectively.\nThe LNP formulation encapsulating eGFP-mRNA was prepared according to the method in 1, wherein the molar ratios of cationic lipid YK-407, neutral lipid DSPC, structured lipid cholesterol and polymer-conjugated lipid DMG-PEG2000 were 75:5:15:5, 49:10:39.5:1.5, 45:10:43.5:1.5, 45:25:20:10, 40:10:48.5:1.5, 35:10:53.5:1.5 and 25:5:65:5, respectively.\nCell recovery and passage: 293T cells were recovered, cultured in a culture dish, and passaged to the required number of cells.\nSeeding plate: The cells in the culture dish were digested and counted. Cells were spread in a 96-well plate at 10,000 cells per well and in a 12-well plate at 150,000 cells per well. Cells were cultured overnight until the cells adhered to the wall.\nCell transfection test: The LNP formulation containing 1.5 μg of eGFP-mRNA prepared in Example 2 (the cationic lipid in the carrier was YK-407) and the Lipofectamin 3000 formulation of eGFP-mRNA were added respectively to the cell culture medium of the 12-well plate, and further incubated for 24 hours. The transfection efficiency of different samples was then investigated according to the fluorescence intensity by observing with a fluorescence microscope."}, "293T cells [4]": {"system": "293T cells", "assay": "Fluorescent detection of Fluc-mRNA (cell transfection efficiency of LNP formulations)", "format": "cell-based", "remark": "listed apart in the source"}, "293T cells [5]": {"system": "293T cells", "assay": "Cell survival rate assay (CCK-8)", "format": "cell-based", "outline": "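293T cells seeded at 10,000 cells/well, cultured overnight, then exposed 24 h to LNP carrying 1.5 μg Fluc-mRNA (cationic:neutral:structured:PEG-type lipid 49:10:39.5:1.5) or Lipofectamine 3000. Viability read by CCK-8, 1 h incubation, absorbance at 450 nm.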"}}, "data": [{"smiles": "CCCCCCCCC(CCCCCCCC)C(=O)OCCCCCCN(CCO)CCN(CCO)CCCCCCOC(=O)C(CCCCCCCC)CCCCCCCC", "note": "[YK-402]", "values": [{"measurement": "Relative light unit (RLU)", "setting": "293T cells [1]; LNP with 0.3 μg Fluc-mRNA, 96-well plate, 24 hours", "result": 5044102, "unit": "RLU"}, {"measurement": "cell transfection efficiency, times that of YK-415", "setting": "293T cells [1]; ratio vs YK-415", "result": 16.93}, {"measurement": "cell transfection efficiency, times that of YK-417", "setting": "293T cells [1]; ratio vs YK-417", "result": 43.01}, {"measurement": "cell transfection efficiency, times that of YK-418", "setting": "293T cells [1]; ratio vs YK-418", "result": 45.34}, {"measurement": "cell transfection efficiency, times that of YK-424", "setting": "293T cells [1]; ratio vs YK-424", "result": 1.75}, {"measurement": "RLU value, times that of compound 21", "setting": "293T cells [1]; ratio vs compound 21", "result": 3.34}, {"measurement": "RLU value, times that of compound 23", "setting": "293T cells [1]; ratio vs compound 23", "result": 3.60}, {"measurement": "PDI", "setting": "[2]; LNP formulation of the cationic lipid, 25° C.", "result": 17.1, "unit": "%"}, {"measurement": "Particle size", "setting": "[2]; LNP formulation of the cationic lipid/DSPC/cholesterol/DMG-PEG2000 49:10:39.5:1.5, 25° C.", "result": 155, "unit": "nm"}, {"measurement": "transfection efficiency at different molar ratios of polymer-conjugated lipid DMG-PEG2000 to carrier", "setting": "293T cells [3]; 0.5% to 15%", "result": "same results"}, {"measurement": "transfection effect at different molar ratios of cationic lipid, neutral lipid, structured lipid and polymer-conjugated lipid", "setting": "293T cells [3]; 75:5:15:5 to 25:5:65:5", "result": "same results"}, {"measurement": "RLU value, times that of ALC-0315", "setting": "293T cells [4]; ratio vs ALC-0315", "result": 2.30}, {"measurement": "RLU value, times that of HHMA", "setting": "293T cells [4]; ratio vs HHMA", "result": 2.43}, {"measurement": "RLU value, times that of Lipofectamine 3000", "setting": "293T cells [4]; ratio vs Lipofectamine 3000", "result": 4.20}, {"measurement": "RLU value, times that of YK-009", "setting": "293T cells [4]; ratio vs YK-009", "result": 0.98}, {"measurement": "RLU value, times that of YK-405", "setting": "293T cells [4]; ratio vs YK-405", "result": 1.58}, {"measurement": "RLU value, times that of YK-406", "setting": "293T cells [4]; ratio vs YK-406", "result": 64.46}, {"measurement": "RLU value, times that of YK-408", "setting": "293T cells [4]; ratio vs YK-408", "result": 3.42}, {"measurement": "RLU value, times that of YK-409", "setting": "293T cells [4]; ratio vs YK-409", "result": 7.53}, {"measurement": "RLU value, times that of YK-410", "setting": "293T cells [4]; ratio vs YK-410", "result": 12.37}, {"measurement": "cell transfection efficiency, times that of YK-412", "setting": "293T cells [4]; ratio vs YK-412", "result": 1.50}, {"measurement": "cell transfection efficiency, times that of YK-413", "setting": "293T cells [4]; ratio vs YK-413", "result": 3.66}, {"measurement": "cell transfection efficiency, times that of YK-414", "setting": "293T cells [4]; ratio vs YK-414", "result": 11.36}, {"measurement": "cell transfection efficiency, times that of YK-416", "setting": "293T cells [4]; ratio vs YK-416", "result": 1.27}, {"measurement": "cell transfection efficiency, times that of YK-419", "setting": "293T cells [4]; ratio vs YK-419", "result": 1.59}, {"measurement": "cell transfection efficiency, times that of YK-420", "setting": "293T cells [4]; ratio vs YK-420", "result": 1.25}, {"measurement": "cell transfection efficiency, times that of YK-421", "setting": "293T cells [4]; ratio vs YK-421", "result": 10.81}, {"measurement": "Cell survival rate", "setting": "293T cells [5]; LNP with 1.5 μg Fluc-mRNA, 24 hours, CCK-8", "result": 72.70, "unit": "%"}, {"measurement": "cell survival rate higher than ALC-0315", "setting": "293T cells [5]; difference vs ALC-0315", "result": 25.49, "unit": "%"}, {"measurement": "cell survival rate higher than HIMA", "setting": "293T cells [5]; difference vs HIMA (HHMA)", "result": 8.43, "unit": "%"}, {"measurement": "cell survival rate higher than Lipofectamine 3000", "setting": "293T cells [5]; difference vs Lipofectamine 3000", "result": 51.04, "unit": "%"}, {"measurement": "cell survival rate higher than SM-102", "setting": "293T cells [5]; difference vs SM-102", "result": 4.80, "unit": "%"}, {"measurement": "cell survival rate higher than YK-404", "setting": "293T cells [5]; difference vs YK-404", "result": 30.58, "unit": "%"}, {"measurement": "cell survival rate higher than YK-405", "setting": "293T cells [5]; difference vs YK-405", "result": 30.84, "unit": "%"}, {"measurement": "cell survival rate higher than YK-406", "setting": "293T cells [5]; difference vs YK-406", "result": 47.74, "unit": "%"}, {"measurement": "cell survival rate higher than YK-408", "setting": "293T cells [5]; difference vs YK-408", "result": 30.39, "unit": "%"}, {"measurement": "cell survival rate higher than YK-409", "setting": "293T cells [5]; difference vs YK-409", "result": 26.59, "unit": "%"}, {"measurement": "cell survival rate higher than YK-410", "setting": "293T cells [5]; difference vs YK-410", "result": 27.78, "unit": "%"}, {"measurement": "cell survival rate higher than YK-411", "setting": "293T cells [5]; difference vs YK-411", "result": 56.37, "unit": "%"}, {"measurement": "cell survival rate higher than YK-412", "setting": "293T cells [5]; difference vs YK-412", "result": 18.56, "unit": "%"}, {"measurement": "cell survival rate higher than YK-413", "setting": "293T cells [5]; difference vs YK-413", "result": 25.50, "unit": "%"}, {"measurement": "cell survival rate higher than YK-414", "setting": "293T cells [5]; difference vs YK-414", "result": 43.95, "unit": "%"}, {"measurement": "cell survival rate higher than YK-415", "setting": "293T cells [5]; difference vs YK-415", "result": 11.54, "unit": "%"}, {"measurement": "cell survival rate higher than YK-416", "setting": "293T cells [5]; difference vs YK-416", "result": 31.73, "unit": "%"}, {"measurement": "cell survival rate higher than YK-417", "setting": "293T cells [5]; difference vs YK-417", "result": 51.36, "unit": "%"}, {"measurement": "cell survival rate higher than YK-418", "setting": "293T cells [5]; difference vs YK-418", "result": 51.65, "unit": "%"}, {"measurement": "cell survival rate higher than YK-419", "setting": "293T cells [5]; difference vs YK-419", "result": 33.78, "unit": "%"}, {"measurement": "cell survival rate higher than YK-420", "setting": "293T cells [5]; difference vs YK-420", "result": 37.11, "unit": "%"}, {"measurement": "cell survival rate higher than YK-421", "setting": "293T cells [5]; difference vs YK-421", "result": 36.99, "unit": "%"}, {"measurement": "cell survival rate higher than YK-424", "setting": "293T cells [5]; difference vs YK-424", "result": 44.77, "unit": "%"}, {"measurement": "cell survival rate higher than compound 21", "setting": "293T cells [5]; difference vs compound 21", "result": 4.86, "unit": "%"}, {"measurement": "cell survival rate higher than compound 23", "setting": "293T cells [5]; difference vs compound 23", "result": 3.59, "unit": "%"}, {"measurement": "cytotoxicity reduced compared with YK-411", "setting": "293T cells [5]; rounded summary statement vs YK-411", "result": 50, "unit": "%"}]}]}
